Measurements as given in article PMC5648829 (Scientific Reports, 2017).
“And” between values parts separate entries of the source, which are not always exact repeats. Identical values can stand only once. Where a SMILES comes first, the peptide text is derived from it.

Legend:
LTA4H [1] = molecular target: T1, LTA4H (Homo sapiens, UniProt P09960); experiment: LTA4H aminopeptidase assay with surrogate substrate Arg-AMC; type: biochemical; parameters: Full-length LTA4H containing a N-terminal (His)6-tag; (His)6-tag (N, cleaved yes); (Gly3-Ser)3 spacer (N, cleaved yes); made in house; host or cells: E. coli BL21 (DE3) star
T1 sequence (P09960 1-611): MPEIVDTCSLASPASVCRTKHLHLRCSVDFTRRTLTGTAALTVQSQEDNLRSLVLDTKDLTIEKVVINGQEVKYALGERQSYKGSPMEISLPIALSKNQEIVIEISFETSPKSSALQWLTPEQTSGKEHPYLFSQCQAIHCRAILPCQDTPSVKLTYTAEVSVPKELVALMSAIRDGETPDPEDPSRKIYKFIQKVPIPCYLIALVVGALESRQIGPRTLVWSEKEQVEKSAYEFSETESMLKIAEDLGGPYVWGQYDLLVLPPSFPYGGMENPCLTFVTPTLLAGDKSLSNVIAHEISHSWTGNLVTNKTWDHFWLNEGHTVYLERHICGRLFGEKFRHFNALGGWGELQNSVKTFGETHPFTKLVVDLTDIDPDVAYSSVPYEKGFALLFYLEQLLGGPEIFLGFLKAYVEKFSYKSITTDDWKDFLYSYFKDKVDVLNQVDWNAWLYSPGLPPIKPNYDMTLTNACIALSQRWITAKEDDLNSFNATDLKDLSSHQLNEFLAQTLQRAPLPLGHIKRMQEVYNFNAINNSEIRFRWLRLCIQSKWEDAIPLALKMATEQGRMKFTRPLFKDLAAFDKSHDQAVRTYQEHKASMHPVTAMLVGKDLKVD
Procedure: (§1) The LTA4H aminopeptidase assays were run using several surrogate substrates: Arg-Rho110-D-Pro (Arg-Rho, Biosyntan GmbH, Germany) or Arg-AMC (Bachem, Switzerland), Pro-AMC (Bachem, Switzerland) and Ala-AMC (Bachem, Switzerland). Assays were performed at RT in 1536-well plates in Tris buffer, pH 7.2 containing NaCl (100 mM), CaCl2 (2 mM), CHAPS (0.5%) and BSA (0.1%). […] The reaction was incubated between 1–2 h (depending on substrate) prior to reading the increase in fluorescence on an EnVision.

LTA4H [2] = molecular target: T1, LTA4H; experiment: LTA4H aminopeptidase assay with surrogate substrate Pro-AMC; type: biochemical; parameters: Full-length LTA4H containing a N-terminal (His)6-tag; (His)6-tag (N, cleaved yes); (Gly3-Ser)3 spacer (N, cleaved yes); made in house; host or cells: E. coli BL21 (DE3) star
Procedure: as §1

LTA4H [3] = molecular target: T1, LTA4H; experiment: LTA4H aminopeptidase assay with surrogate substrate Ala-AMC; type: biochemical; parameters: Full-length LTA4H containing a N-terminal (His)6-tag; (His)6-tag (N, cleaved yes); (Gly3-Ser)3 spacer (N, cleaved yes); made in house; host or cells: E. coli BL21 (DE3) star; conditions: for Effect on Ala-AMC hydrolysis: Table 1, whether compound increased or inhibited hydrolysis of Ala-AMC by the enzyme; for IC50: Table 2
Procedure: as §1

LTA4H [4] = molecular target: T1, LTA4H; experiment: PGP peptidolysis assay by LC-MS/MS; type: biochemical; parameters: Full-length LTA4H containing a N-terminal (His)6-tag; (His)6-tag (N, cleaved yes); (Gly3-Ser)3 spacer (N, cleaved yes); made in house; host or cells: E. coli BL21 (DE3) star
Procedure: The aminopeptidase activity of LTA4H was assessed with H-PGP-OH (Bachem, Switzerland) as substrate. Assays were performed at RT in black 384-well low volume plates (Greiner) and analyzed by LC-MS/MS. All compounds were tested as 8 point dose response curves in triplicates included on every plate. 3 µl of compound diluted in assay buffer (Tris (50 mM), NaCl (150 mM), CaCl2 (10 mM) at pH7.5) was transferred to the plate followed by 3 µl of enzyme solution (20 nM LTA4H in assay buffer). The enzyme compound mixture was incubated at room temperature for 15 min prior to the addition of 6 µl substrate solution (800 µM PGP in assay buffer). Upon addition of the substrate, the plate was placed on a shaker at 25 °C for 40 min. The reaction was stopped by addition of 12 µl formic acid (0.2% v/v). The final concentration of the enzyme in the assay was 5 nM, the PGP 400 µM and the compound concentration range was from 50000 nM to 3.2 nM. For peptide quantification, an HPLC instrument from Agilent Series 1290 (binary high pressure gradient system) with detectors UV, fluorescence and mass (single Quad) detectors was used. HPLC was done using an Atlantis T3 column (C18 100 × 2.1mm, […], 100 Å) with A: water (MQ) + 0.1% formic acid and B: acetonitrile + 0.1% formic acid: 0–0.3 min 0% buffer B, then increased to 100% buffer B at 0.31–0.65 min and again decreased to 0% buffer B at 0.66–0.70 min. Flow was set to 1.5 ml/min with start gradient pressure of 400 bar.

[5] = PGP degradation assay in BALF ex-vivo (LC-MS/MS); type: in vitro ADME, mouse; conditions: BALF of wt and LTA4H-KO mice, 24 h at 37 °C, compared with PBS
Procedure: 200 µl of BALF were spiked with PGP and Ac-PGP at the final concentration of 10 nM. […] After incubation, samples were filtered (Amicon Ultra-0.5, Membrane Ultracel-30, PMNL 30 kD) by centrifugation (3 min at 10,000 × g). Filtered samples were transferred to vials for liquid chromatography tandem mass spectrometry (LC-MS/MS) analysis. The LC system consisted of an Acquity UPLC I-Class interfaced with a Xevo-TQS triple quadruple MS (Waters). […] PGP was monitored with MRM m/z transitions of 270.1 > 173.1 (quantifier) and 270.1 > 70.1 and 270.1 > 116.1 (qualifiers). Ac-PGP was monitored with m/z transitions of 312.2 > 112.1 (quantifier) and 312.2 > 116.1 and 312.2 > 140.1 (qualifiers).

human neutrophils [6] = experiment: Human neutrophil shape change assay; type: cell-based; conditions: isolated human neutrophils
Procedure: Neutrophils were purified by Ficoll density gradient centrifugation from human blood and incubated with graded concentrations of PGP, Ac-PGP or the known neutrophil chemoattractant GROα in assay buffer containing BSA (0.1%) in PBS for 10 min at 37 °C, 5% CO2 and 90% humidity. Cells were then fixed and shape change analyzed by flow cytometry.

human neutrophils [7] = experiment: Human neutrophil chemotaxis assay; type: cell-based
Procedure: Purified human neutrophils were labeled with calcein-AM (Fluka, Buchs, Switzerland). Test compounds (PGP, Ac-PGP, RTR, and Ac-RTR) or IL-8 (Sigma) as positive chemoattractant control were diluted in RPMI containing BSA (0.1%) and added at graded concentrations into the wells of a 96-well ChemoTX plate (3.2 mm diameter, 5 µm pore size; NeuroProbe, Gaithersburg, MD). Labeled cells (50,000 per well) were added onto the filters above the wells that received the test compounds. Plates were incubated for 90 min at 37 °C. The filters were removed and fluorescence in the receiving wells was measured using a SpectraMAX Gemini EM instrument (Molecular Devices, Sunnyvale, CA; λex = 485 nm; λem = 538 nm). The chemotactic index was measured as the ratio of fluorescence in the test wells and in control (buffer only) wells.

[8] = Table 1, average of minimum two biological replicates, read-out: IC50 Arg-AMC
[9] = Table 1, read-out: IC50 Pro-AMC
[10] = Table 2, read-out: IC50 Arg-AMC
[11] = Table 2, read-out: IC50 Pro-AMC

| IC50 (LTA4H [1]; [8]) [µM] | IC50 (LTA4H [2]; [9]) [µM] | Effect on Ala-AMC hydrolysis (LTA4H [3]) | Ratio IC50 PGP/Arg-AMC (LTA4H [4]; Table 1) | IC50 (LTA4H [4]; Table 1, read-out: IC50 PGP) [µM] | Compound | also measured |
| --- | --- | --- | --- | --- | --- | --- |
| 0.97 | 1.03 | increase | 0.40 | 0.39 | Nc1nc(-c2ccc(Cc3ccccc3)cc2)cs1 [ARM-1, 4-(4-benzylphenyl) thiazol-2-amine, reference compound] | – |
| – | – | – | – | – | CC(=O)N1CCC[C@H]1C(=O)NCC(=O)N1CCC[C@H]1C(=O)O [Ac-PGP, N-acetly-Pro-Gly-Pro] (Ac-Pro-Gly-Pro-OH) | Ac-PGP stability in exudates [5]: remained as stable over 24 h at 37 °C as in PBS |
| 0.27 | 0.28 | increase | 1.4 | 0.38 | c1ccc(Cc2ccc(-c3c[nH]cn3)cc2)cc1 [Compound 2, 4-(4-benzylphenyl)-1H-imidazole] | – |
| – | – | – | – | – | c1ccc(Oc2ccc(-c3c[nH]cn3)cc2)cc1 [Compound 6, 5-(4-phenoxyphenyl)-1H-imidazole] | IC50 (LTA4H [1]): 0.064 µM; IC50 (LTA4H [2]): 0.077 µM; IC50 (LTA4H [4]): 0.045 µM |
| 2.87 | 1.69 | increase | 0.49 | 1.4 | Cn1cnc(-c2ccc(Oc3ccccc3)cc2)c1 [Compound 7, 1-methyl-4-(4-phenoxyphenyl)-1H-imidazole] | – |
| 1.3 | 1.35 | increase | 1.44 | 1.87 | Oc1cc(-c2ccc(Oc3ccccc3)cc2)n[nH]1 [Compound 8, 3-(4-phenoxyphenyl)-1H-pyrazol-5-ol] | – |
| 0.48 | 0.47 | increase | 0.07 | 0.035 | c1ccc(Oc2ccc(-c3cc[nH]c3)cc2)cc1 [Compound 9, 3-(4-phenoxyphenyl)-1H-pyrrole] | – |
| – | – | – | – | – | OCc1ccc(Oc2nc3ccccc3s2)cc1 [Compound 14] | IC50 (LTA4H [1]; [10]): 0.225 µM; IC50 (LTA4H [2]; [11]): 0.152 µM; IC50 (LTA4H [3]): > 25 µM; Ratio IC50 PGP/Arg-AMC (LTA4H [4]; Table 2, fold selectivity): 0.34; IC50 (LTA4H [4]; Table 2, read-out: IC50 PGP): 0.076 µM |
| – | – | – | – | – | O=Cc1ncc(Oc2nc3ccccc3s2)cn1 [Compound 16] | IC50 (LTA4H [1]; [10]): 2.58 µM; IC50 (LTA4H [2]; [11]): 15.7 µM; IC50 (LTA4H [3]): > 25 µM; IC50 (LTA4H [4]; Table 2, read-out: IC50 PGP): 11.2 µM |
| – | – | – | – | – | O=Cc1ccc(Oc2nc3ncccc3s2)cn1 [Compound 17, 5-(thiazolo[4,5-b]pyridin-2-yloxy)picolinaldehyde] | IC50 (LTA4H [1]; [10]): 0.082 µM; IC50 (LTA4H [2]; [11]): 0.56 µM; IC50 (LTA4H [3]): 0.55 µM; Ratio IC50 PGP/Arg-AMC (LTA4H [4]; Table 2, fold selectivity): 14 and 13.5; IC50 (LTA4H [4]; Table 2, read-out: IC50 PGP): 1.11 µM |
| – | – | – | – | – | GROα: known chemokine and neutrophil chemoattractant | ED50 neutrophil shape change (human neutrophils [6]): approximately 0.2 nM |
| – | – | – | – | – | IL-8: positive chemoattractant control | neutrophil chemotaxis (human neutrophils [7]; concentration as low as 10 nM): substantial chemotaxis |
| – | – | – | – | – | arginine-threonine-arginine [RTR] | neutrophil chemotaxis (human neutrophils [7]; graded concentrations up to mM range, 90 min at 37 °C): entirely negative |

| Compound | IC50 (LTA4H [1]; [8]) [µM] | IC50 (LTA4H [2]; [9]) [µM] | Effect on Ala-AMC hydrolysis (LTA4H [3]) | Ratio IC50 PGP/Arg-AMC (LTA4H [4]; Table 1) | IC50 (LTA4H [4]; Table 1, read-out: IC50 PGP) [µM] | also measured |
| --- | --- | --- | --- | --- | --- | --- |
| COc1ccc(Cc2ccccc2)cc1 [4-MDM, 4-Methoxydiphenylmethane, reference compound] | 10.1 | 33.6 | increase | 0.42 | 4.22 | – |
